Measurements as given in patent US20220306603A1, “TARGETING DNA REPAIR IN TUMOR CELLS VIA INHIBITION OF ERCC1-XPF” (The Governors of the University of Alberta, priority 2019, published 2022).
≈ marks a conversion by molar mass, not a printed value. Entries after “also recorded” stand apart in the source; their conditions may differ. Where two headings read alike, the source gives them in different places. Blank lines part the entries; values can stand above or below the compound they belong to.

How the values were obtained:
[1] = Microsomal stability in vitro (human liver microsomes); conditions: for Microsomal stability in vitro CLint (in words): Table 8
[2] = ADME screening: cell permeability and efflux ratio; conditions: for Cell permeability (Mean recovery %) (in words): Table 8; for efflux ratio: not told
ERCC1-XPF = molecular target: T1, ERCC1-XPF (Homo sapiens, UniProt Q92889); assay: Microplate fluorescence incision assay of ERCC1-XPF endonuclease activity; type: biochemical; conditions: for inhibition of ERCC1-XPF endonuclease activity (in words): compounds 10 μM each
T1 construct: His6; made in house; host or cells: E. coli BL21 (DE3)
T1 sequence (Q92889 1-916): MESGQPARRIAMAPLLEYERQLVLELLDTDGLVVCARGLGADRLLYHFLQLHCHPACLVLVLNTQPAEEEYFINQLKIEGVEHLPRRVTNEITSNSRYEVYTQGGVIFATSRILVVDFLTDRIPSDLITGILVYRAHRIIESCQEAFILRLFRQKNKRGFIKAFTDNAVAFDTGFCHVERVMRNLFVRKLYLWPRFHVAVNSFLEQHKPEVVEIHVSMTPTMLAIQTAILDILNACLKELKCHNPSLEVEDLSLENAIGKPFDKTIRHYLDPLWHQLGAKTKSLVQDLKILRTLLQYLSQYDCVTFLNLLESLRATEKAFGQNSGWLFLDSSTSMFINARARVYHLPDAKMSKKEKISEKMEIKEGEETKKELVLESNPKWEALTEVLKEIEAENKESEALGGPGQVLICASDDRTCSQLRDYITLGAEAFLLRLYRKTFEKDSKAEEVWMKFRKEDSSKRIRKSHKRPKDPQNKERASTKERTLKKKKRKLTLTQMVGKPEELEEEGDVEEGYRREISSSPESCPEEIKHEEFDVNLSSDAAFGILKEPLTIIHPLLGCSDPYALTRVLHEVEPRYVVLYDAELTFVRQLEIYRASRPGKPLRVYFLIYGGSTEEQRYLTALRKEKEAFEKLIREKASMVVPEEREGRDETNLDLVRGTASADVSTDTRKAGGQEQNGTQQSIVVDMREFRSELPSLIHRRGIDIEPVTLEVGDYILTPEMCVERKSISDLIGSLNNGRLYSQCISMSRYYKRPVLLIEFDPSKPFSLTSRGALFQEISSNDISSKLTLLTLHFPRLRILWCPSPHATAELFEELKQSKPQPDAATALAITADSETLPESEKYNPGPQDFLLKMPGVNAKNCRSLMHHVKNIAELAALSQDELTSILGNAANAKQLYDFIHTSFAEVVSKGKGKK
Text: This assay has been previously described (29), and utilizes a stem-loop substrate (composed of a 10mer-duplex stem and a 20mer-oligodT single-strand loop), labelled on the 5′-terminus with 6-FAM and 3′ with the quencher dabcyl.
Human ERCC1-XPF wild-type protein was obtained as previously described (29). Basically, the recombinant protein was expressed from a bicistronic plasmid (provided by Dr. Richard Wood, University of Texas MD Anderson Cancer Center, Smithville, Tex.) in the E. coli BL21 (DE3) strain. Since both XPF and ERCC1 contained a polyhistidine (His-6) tag, the proteins extracted from E. coli were incubated with a ProBond Nickel-Chelating Resin (Thermo Fisher Scientific). Protein eluted from the Ni affinity column was subsequently loaded into a Hi-trap heparin column (GE Healthcare). Fractions recovered from the heparin column that contained ERCC1-XPF were dialyzed, concentrated and stored at −80° C. in 10 mM HEPES pH 7.4, 2.5 mM p-mercaptoethanol, 0.01% CHAPS, 0.25 mM EDTA, 50% glycerol and 25 mM NaCl.
A previously described protocol (2,29) was followed.

ERCC1-XPF complex = molecular target: T2, ERCC1-XPF complex (Homo sapiens, UniProt Q92889); assay: Steady-state intrinsic tryptophan fluorescence quenching binding assay
T2 construct: His6; made in house; host or cells: E. coli BL21 (DE3)
T2 sequence (Q92889 1-916): T1 sequence (Q92889 1-916)
Method: Steady-state fluorescence spectra were measured at room temperature on a Perkin-Elmer LS-55 spectrofluorometer (Freemont, Calif.) with 5 nm spectral resolution for excitation and emission using 30-80 nM solution of purified recombinant ERCC1-XPF protein complex. […] In studying the effects of inhibitors on protein fluorescence intensities, additions to protein samples were made from inhibitors stock solutions, keeping the protein dilution below 3%.

[3] = ADME screening: solubility; type: physicochemical; conditions: Table 8
[4] = Stability of the compound over time; type: physicochemical
HCT116 cells [5] = assay: Cellular repair of UV-induced cyclobutane pyrimidine dimers (immunofluorescence); type: cell-based, human; conditions: 8 J/m^2 UV-C, up to 24 h post-irradiation
Method: Protocol of Mirzayans et al. was followed with minor modifications (30). Approximately 1×10^5 HCT116 cells were seeded on each coverslip and allowed to attach overnight. Medium was then removed and cells were treated for one hour with the desired compound. The medium was removed, and cells were exposed to 8 J/m^2 UV-C radiation (G15T8 254 nm lamp, Ushio America Inc, Cypress, Calif.) followed by adding fresh medium containing the compound. Plates were incubated at 37° C. for different periods of time up to 24 hours and fixed in 50:50 methanol/1× phosphate-buffered saline (PBS) solution, followed by replacing the methanol/PBS solution with 100% methanol and incubation in −20° C. After 20 minutes, methanol was removed, and cells were treated with PBS for 5 minutes in room temperature. After fixing, cells were permeabilized in 0.5% Triton/PBS and washed with PBS, denatured in 2 N HCl, and neutralized by twice washing with 0.1 M borate buffer pH 8.5. Cells on cover slips were washed once with PBS followed by blocking with 5% non-fat dry milk/PBS for 30 minutes. Mouse anti-thymine dimer monoclonal antibody (Cat. No. MC-062, Kamiya Biomedical Company, Seattle, Wash.) was applied to the cover slips for one hour in the dark and at room temperature. Cells were then washed with PBS containing 0.1% Tween-20 and incubated with rabbit anti-mouse IgG-Alexafluor antibody (Invitrogen, Carlsbad, Calif.) followed by two washes with PBS/(0.1%)Tween-20. Cells on coverslips were then washed with PBS, rinsed with water, and mounted on slides using DAPI glycerol mounting solution. Slides were kept at 4° C. before fluorescent microscopic evaluation and measurement of fluorescence intensity with MetaXpress Version: 6.2.1.704 software (Molecular Devices, Sunnyvale, Calif.).
To test for inhibition of nucleotide excision repair, we monitored the cellular removal of UVC-induced cyclobutane pyrimidine dimers (CPDs) in HCT116 cells over a 24-hour period using an immunochemical assay.

HCT116 cells [6] = assay: Clonogenic survival assay, UV treatment; type: cell-based, human; conditions: 254 nm UV 0-10 J/m^2; compound 0.5-4 μM
Method: UV treatment: HCT116 cells (100-800 cells depending on the UV dose) were plated in triplicate in 60-mm petri dishes. The cells were incubated overnight at 37° C. in a humidified atmosphere containing 5% CO2 to allow for cell attachment. […] Medium was removed again, and cells were exposed to increasing doses (0-10 J/m^2) of UV-C radiation and then incubated for a further 10 days in the presence of inhibitor at 37° C. in a 5% CO2 atmosphere to allow for colony formation. After this period plates were stained with crystal violet and colonies were counted using a Colcount instrument (Oxford Optronix, Abingdon UK). Finally, plating efficiency and surviving fraction were calculated.

cancer cells = conditions: cited from earlier work
[7] = test system: interaction between ERCC1 and XPF; conditions: in vitro; cited from earlier work
HCT116 cells [8] = assay: Cytotoxicity profile: crystal violet viability assay (and colony forming assay); type: cell-based, human; conditions: 5 μM, 3 days exposure, crystal violet
Method: Crystal violet viability assays were carried out to assess the cellular toxicity of these compounds to HCT116 cells and to choose relatively non-cytotoxic concentrations to be further utilised in sensitizing cells to UV radiation or cyclophosphamide.
The beneficial effect is especially visible at a concentration of 5.0 μM. At higher concentrations, both compounds show an equal cytotoxic effect (FIG. 15).

serum proteins = assay: ADME screening: serum protein binding; type: in vitro ADME; conditions: Table 8
[9] = test system: five CYP450 tested enzymes; assay: ADME screening: CYP inhibition (five CYP450 enzymes); conditions: Table 8
[10] = test system: five CYP450 enzymes (CYP1A2, CYP2C9, CYP2C19, CYP2D6, CYP3A4-M); assay: as above; conditions: human
[11] = Hepatocyte stability in vitro; type: in vitro ADME; conditions: Table 8
HCT116 cells [12] = assay: Clonogenic survival assay, cyclophosphamide treatment; type: cell-based, human; conditions: cyclophosphamide 0-300 μM; compound 1-4 μM
Method: Plates were incubated for another 8 days at 37° C. in a 5% CO2 atmosphere for colony formation. After this period plates were stained with crystal violet, colonies were counted, and plating efficiency and surviving fraction were calculated.

Microsomal stability in vitro CLint (in words) [1]: Moderate
Cell permeability (Mean recovery %) (in words) [2]: Low (common)
IC50 (ERCC1-XPF; Table 7, at least three experiments of Vo versus concentration, read-out: IC50): 0.321 ± 0.022 µM
Kd (ERCC1-XPF complex; Table 7, read-out: Kd protein): 0.15 ± 0.01 µM
LogD (rating) (ADME screening: LogD; Table 8): Good
logD (ADME screening: LogD; pH 7.4): 2.31
Solubility (in words) [3]: Highly soluble
SMILES: COc1ccc2nc3cc(Cl)ccc3c(Nc3cc(CN4CCCC4)c(O)c(CN4CCCC4)c3)c2n1 [Compound D4, pyronaridine, reference compound]
inhibition of ERCC1-XPF endonuclease activity (in words) (ERCC1-XPF): potent inhibitor; also recorded: strong inhibitory effect

stability over time (in words) [4]: instability over time
SMILES: COc1ccc2nc3cc(Cl)ccc3c(Nc3ccc(O)c(CN4CCN(Cc5cccc(C)c5)CC4)c3)c2c1 [Compound A2, 4-((6-Chloro-2-methoxyacridin-9-yl)amino)-2-((4-(3-methylbenzyl)piperazin-1-yl)methyl)phenol]

SMILES: COc1ccc2nc3cc(Cl)ccc3c(Nc3ccc(O)c(CN4CCN(c5ccc(Cl)c(Cl)c5)CC4)c3)c2c1 [Compound A5, 4-((6-Chloro-2-methoxyacridin-9-yl)amino)-2-((4-(3,4-dichlorophenyl)piperazin-1-yl)methyl)phenol]
inhibition of cellular removal of CPDs / thymidine dimers (in words) (HCT116 cells [5]): failed to inhibit the cellular removal of CPDs
inhibition of ERCC1-XPF endonuclease activity (in words) (ERCC1-XPF): very limited inhibition
quenching of protein fluorescence at 330 nm (ERCC1-XPF complex; 2 μM compound, excitation 295 nm): 3±1%

inhibition of ERCC1-XPF endonuclease activity (in words) (ERCC1-XPF): complete loss of inhibition
SMILES: CN1CCN(Cc2cc(N)ccc2O)CC1 [Gen B4]

inhibition of ERCC1-XPF endonuclease activity (in words) (ERCC1-XPF): marked capacity to inhibit
SMILES: CN1CCN(Cc2cc(Nc3c4ccc(Cl)cc4nc4ccc(O)cc34)ccc2O)CC1 [Gen B5]

SMILES: COc1ccc2nc3cc(Cl)ccc3c(Nc3ccc(O)c(CN4CCN(C5CCCCC5)CC4)c3)c2c1 [Compound A3, 4-((6-Chloro-2-methoxyacridin-9-yl)amino)-2-((4-cyclohexylpiperazin-1-yl)methyl)phenol]
IC50 (ERCC1-XPF; Table 6, at least three experiments of Vo versus concentration, 30 minutes incubation, 5% DMSO, read-out: IC50 ± SD): 0.38 ± 0.1 µM
inhibition of ERCC1-XPF endonuclease activity (in words) (ERCC1-XPF): marked capacity to inhibit; also recorded: potent inhibitors
Kd (ERCC1-XPF complex; Table 6, read-out: Kd ± SD): 0.145 ± 0.005 µM

SMILES: COc1ccc2nc3cc(Cl)ccc3c(Nc3ccc(O)c(CN4CCN(C)CC4)c3)c2c1 [Compound F06, 4-((6-Chloro-2-methoxyacridin-9-yl)amino)-2-((4-methylpiperazin-1-yl)methyl)phenol, reference compound]
Microsomal stability in vitro CLint (in words) [1]: high
CLint scaled ([1]; human, liver microsomes): 53.7 mL/min/kg
sensitisation to UV radiation, clonogenic survival (in words) (HCT116 cells [6]): modest sensitisation capacity
sensitization of cancer cells to MMC and cisplatin (in words) (cancer cells): sensitized cancer cells to MMC and cisplatin
Cell permeability (Mean recovery %) (in words) [2]: Low (common)
efflux ratio [2]: > 2
efflux ratio ([2]; efflux ratio): 11.2
IC50 (ERCC1-XPF): 1.86 µM
IC50 (ERCC1-XPF; Table 7, at least three experiments of Vo versus concentration): 1.86 ± 0.25 µM
inhibition of ERCC1-XPF endonuclease activity (in words) (ERCC1-XPF): marked capacity to inhibit
IC50 (ERCC1-XPF; read-out: IC50 of ERCC1-XPF endonuclease activity, full-length ERCC1-XPF, 30 minutes incubation, 5% DMSO): 1.86 ± 0.25 µM
IC50 (ERCC1-XPF; read-out: IC50 ± SD, Table 6, at least three experiments of Vo versus concentration, 30 minutes incubation, 5% DMSO): 1.86 ± 0.25 µM
effect on the interaction between ERCC1 and XPF (in words) [7]: repressed the interaction between ERCC1 and XPF in vitro
cells survived (HCT116 cells [8]): about 35%
Kd (ERCC1-XPF complex; Table 6, read-out: Kd ± SD): 0.14 ± 0.005 µM
Kd (ERCC1-XPF complex; Table 7, read-out: Kd protein): 0.14 ± 0.005 µM
LogD (rating) (ADME screening: LogD; Table 8): Good
LogD (remark in the LogD row) (ADME screening: LogD; Table 8): (partially soluble)
logD (ADME screening: LogD; Table 8): 3.86
log D (ADME screening: LogD; pH 7.4): 3.86
Serum protein binding (% bound) (serum proteins): (99.9) % bound
Serum protein binding (in words) (serum proteins): Strong binding
Solubility (in words) [3]: (partially soluble)
solubility ([3]; <1.56 means below lower limit of quantilation): 8.13 µM (≈ 3.76 µg/mL)
CVP inhibition (5 enzyme) (rating) [9]: Moderate
IC50 [10]: ≥ 1 µM
Hepatocyte stability in vitro CLint (in words) [11]: (medium clearance)
CLint scaled ([11]; hepatocytes): < 17.8 mL/min/kg

SMILES: COc1ccc2nc3cc(Cl)ccc3c(Nc3ccc(O)c(CN4CCN(CCNc5ccccc5)CC4)c3)c2c1 [Gen C-5, 4-((6-Chloro-2-methoxyacridin-9-yl)amino)-2-((4-(2-(phenylamino)ethyl)piperazin-1-yl)methyl)-phenol]
sensitisation to cyclophosphamide, clonogenic survival (in words) (HCT116 cells [12]): no significant sensitisation effect
